Legend:
mice [1] = system: mice
Protocol: Mice were given Niraparib (25 mg/kg, intraperitoneal) or vehicle control for 11 days. FIG. 5A) Platelet counts and immature platelet fraction were measured on a SYSMEX™ hematology analyzer. Line graph: Black circles=Vehicle, gray squares=Niraparib. Bar charts: black=Vehicle, gray=Niraparib. FIG. 5B) MKs and MK-biased HSC counts. Dark gray=DMSO (vehicle), light gray=Niraparib. FIG. 5C) expression of γH2AX. Left bar=control, right bar=Niraparib, and FIG. 5D) MK ploidy was determined by flow cytometry (see FIGS. 9A-9C). n=4-5 mice per group. Gray=Niraparib, black=Vehicle.
Mice were treated with a subtherapeutic dosage of the PARP inhibitor Niraparib (25 mg/kg, intraperitoneal) or saline control for 11 days. The dosing schedule was as follows: 5 consecutive days of Niraparib treatment followed by 2 days of drug holiday (no injection), then 4 more consecutive days of Niraparib treatment. Mice were sacrificed on day 11. Platelet counts were taken on days 0 (pre-treatment), 2, 7, 9, and 11. Cohorts of mice were sacrificed on days 3 and 11 for quantification of bone MK and progenitor populations. […] To.
Niraparib treatment were measured.

[2] = system: MKs in calvaria bone marrow of vWF-GFP reporter mice; conditions: 25 mg/kg, 7 days, vs DMSO
Protocol: (§1) While MK ploidy is not directly causative of platelet production, higher ploidy MKs are associated with increased platelet production and ploidy status is indicative of more terminal MK maturation. To look further at live MKs, 2-photon intravital microscopy (2PIVM) was performed in the calvaria of vWF-GFP reporter mice (MKs and platelets are GFP+) treated with 25 mg/kg Niraparib or vehicle control DMSO for 7 days. Mice were anesthetized and a window in the calvaria was made to view the exposed bone marrow.

platelets = platelets drawn on D11, 25 mg/kg; stimulated with ADP, TRAP or CRP; listed as niraparib
Protocol: Platelets were drawn from mice at sacrifice on D11 (see FIG. 6), stimulated with agonists as indicated, and the MFI of activated αIIbβ3 measured by flow cytometry. Black markers=saline, gray markers=Niraparib, 25 mg/kg.
Platelets were drawn from mice at sacrifice on D11, stimulated with agonists as indicated, and the MFI of activated αIIbβ3 measured by flow cytometry. Black=saline, gray=Niraparib (25 mg/kg).
as §1
Platelets were drawn from mice at sacrifice on D11, stimulated with agonists as indicated, and the MFI of activated αIIbβ3 measured by flow cytometry.

[3] = system: lineage depleted murine bone marrow; test: In vitro megakaryocyte differentiation: lineage depleted bone marrow cultured with TPO for 4 days with PARPi (VWF-GFP signal); format: cell-based; conditions: for megakaryocyte differentiation / megakaryopoiesis in vitro: TPO, 4 days, PARPi vs vehicle
Protocol: Lineage depleted bone marrow was cultured with TPO for 4 days in the presence of PARPi or vehicle controls. FIG. 14A) representative images of VWF-GFP signal. FIG. 14B) Mean normalized area of GFP signal (n=3). Error bars±SEM.Circles=Olaparib, squares=Niraparib, triangles=Rucaparib.
Lineage depleted bone marrow was cultured with TPO for 4 days in the presence of PARPi or vehicle controls (FIG. 14A-14B).
Lineage depleted murine bone marrow was cultured with TPO for 4 days in the presence of PARPi or vehicle controls (FIG. 14A-14B).

[4] = 0.03 μM vs vehicle
mice [5] = conditions: 50 mg/kg daily i.p.; Niraparib 10 days, Olaparib 3 days
Protocol: Mice were treated with 50 mg/kg Niraparib or Olaparib daily (i.p.) for 10 or 3 days, respectively, and platelet counts measured by SYSMEX™.
FIG. 21A) Platelet count versus time. FIG. 21B) RBC count versus time. FIG. 21C) WBC count versus time.
8,9 Mice were treated with 50 mg/kg of Niraparib and Olaparib […].

C57B1/6 mice = test: Olaparib 50 mg/kg i.p. 5 consecutive days each week in C57B1/6 mice, 2-week and 4-week experiments; format: in vivo
Protocol: C57B1/6 mice dosed with 50 mg/kg Olaparib intraperitoneally for 5 days consecutive days each week. Dark gray=vehicle, light gray=Olaparib.
Olaparib treatment increases platelet count and alters megakaryocyte ploidy in mice. C57B1/6 mice were dosed with 50 mg/kg Olaparib intraperitoneally for 5 days consecutive days each week.

[6] = system: PARylation in megakaryocytes; test: PARylation western blot in megakaryocytes subjected to hydrogen peroxide with or without Olaparib; format: cell-based, murine; conditions: 10 mM H2O2; Olaparib 30 μM or 3 μM
Protocol: (§2) Lineage depleted murine bone marrow was cultured with TPO for 4 days. Gradient-isolated megakaryocytes subjected to 10 mM of hydrogen peroxide (H2O2) in the presence or absence of Olaparib (30 μM or 3 μM). Cells were subsequently lysed in RIPA buffer containing protease inhibitor cocktail. A western blot to detect PARylation was performed. Equal loading was confirmed using an anti-GAPDH antibody. Impage shown is a representative of three experiments.
as §2, with “megakaryocytes were” for “megakaryocytes”, “olaparib” for “Olaparib”, “performed (FIG. 18).” for “performed.”, “antibody.” for “antibody. Impage shown is a representative of three experiments.”

patients = conditions: ITP patients; cited from earlier work

NC(=O)c1cccc2cn(-c3ccc([C@@H]4CCCNC4)cc3)nc12 [Niraparib, 2-{4-[(3S)-Piperidin-3-yl]phenyl}-2H-indazole-7-carboxamide]
number of MK-committed HSCs positive for γH2AX (mice [1]; 25 mg/kg i.p.): significantly increased | γH2AX-positive MKPs (mice [1]; 25 mg/kg i.p.): trend to more | 2N MKs (mice [1]; 25 mg/kg i.p., 11 days): almost no 2N MKs | number of 32N MKs (mice [1]; 25 mg/kg i.p., 11 days): large increase | MK number / MK counts (mice [1]; 25 mg/kg i.p., bone marrow, flow cytometry, listed as niraparib): increases | MK-committed HSCs (CD41+LT-HSCs) counts (mice [1]; 25 mg/kg i.p., days preceding the increase in platelet counts): significant increase | immature platelet fraction (mice [1]; 25 mg/kg i.p., from day 7, vs saline): significant increase | platelets, percent of normal levels (mice [1]; Niraparib treated mice): > 150 % of normal levels | MKs in day 3 HSPC/myeloid panel (mice [1]; day 3, committed progenitors and classical hematopoiesis pathways): Significant increase in MKs | day 11 HSPC/myeloid panel: HSC status (mice [1]; day 11): HSC exhaustion | megakaryopoiesis (mice [1]; lower doses of niraparib): increase in megakaryopoiesis | time to significant increase in mouse platelet count (mice [1]; lower doses of niraparib, from initial administration): ≤ 7 days | DNA damage accumulation in megakaryocytes, γH2AX immunofluorescence on long bones (mice [1]; niraparib group): Increased DNA damage accumulation | MK number in bone marrow by 2-photon intravital microscopy [2]: increased MK number | platelet function / activation (platelets): does not affect platelet function | megakaryocyte differentiation / megakaryopoiesis in vitro [3]: reduce megakaryocyte differentiation | megakaryocyte maturation in vitro at higher doses ([3]; lineage depleted bone marrow cells from WT mice, higher doses): decreased maturation | megakaryocyte maturation in vitro at lower doses ([3]; lineage depleted bone marrow cells from WT mice, lower doses): increased megakaryocyte maturation | ploidy in vitro [4]: increases ploidy

O=C(c1cc(Cc2n[nH]c(=O)c3ccccc23)ccc1F)N1CCN(C(=O)C2CC2)CC1 [Olaparib, 4-[(3-[(4-cyclopropylcarbonyl)piperazin-4-yl]carbonyl)-4-fluorophenyl]methyl (2H) phthalazin-1-one]
platelet counts at 50 mg/kg (mice [5]): severe thrombocytopenia | platelet counts after day 6 (C57B1/6 mice; 2-week and 4-week experiments): returned to approximately baseline | megakaryocyte ploidy shift after 2-weeks (C57B1/6 mice; 2 weeks): fewer 8N and more 32N cells | number of megakaryocytes (CD41+CD42+ flow cytometry of bone marrow) at 2-weeks (C57B1/6 mice; 2 weeks): trend to fewer megakaryocytes | megakaryocyte ploidy shift after 4-weeks (C57B1/6 mice; 4 weeks): more 8N and fewer 16N cells | number of megakaryocytes (CD41+CD42+ flow cytometry of bone marrow) at 4-weeks (C57B1/6 mice; 4 weeks): trend to fewer megakaryocytes | platelet count (C57B1/6 mice; increase found at day 6, 2-week and 4-week experiments): surprising increase in platelet count | megakaryocyte differentiation / megakaryopoiesis in vitro [3]: reduce megakaryocyte differentiation | megakaryocyte PARylation [6]: reverses PARylation pattern

Rituximab: treatment for ITP patients, which can take 4-6 weeks for peak results
time for peak results (patients): 4-6 weeks

Reference: patent US20250120963A1, “METHODS AND COMPOSITIONS FOR THE TREATMENT OF THROMBOCYTOPENIA” (THE CHILDREN'S MEDICAL CENTER CORPORATION, priority 2023, published 2025)
